Data from US11578054B2, “Compounds useful as immunomodulators” (Bristol-Myers Squibb Company, priority 2018, dated 2023).

Target: PD-1/PD-L1 (Homo sapiens (Human), UniProt Q9NZQ7)
Test: PD-1/PD-L1 Homogenous Time-Resolved Fluorescence (HTRF) binding assay
Conditions: PD-L1-His 10 nM, PD-1-Ig 20 nM
Source text: The ability of the compounds of formula (I) to bind to PD-L1 was investigated using a PD-1/PD-L1 Homogenous Time-Resolved Fluorescence (HTRF) binding assay.
Homogenous Time-Resolved Fluorescence (HTRF) binding assay.
The interaction of PD-1 and PD-L1 can be assessed using soluble, purified preparations of the extracellular domains of the two proteins. The PD-1 and PD-L1 protein extracellular domains were expressed as fusion proteins with detection tags, for PD-1, the tag was the Fc portion of Immunoglobulin (PD-1-Ig) and for PD-L1 it was the 6 histidine motif (PD-L1-His). All binding studies were performed in an HTRF assay buffer consisting of dPBS supplemented with 0.1% […] bovine serum albumin and 0.05% (v/v) Tween-20. For the h/PD-L1-His binding assay, inhibitors were pre-incubated with PD-L1-His (10 nM final) for 15m in 4 μl of assay buffer, followed by addition of PD-1-Ig (20 nM final) in 1 µl of assay buffer and further incubation for 15m. HTRF detection was achieved using europium crypate-labeled anti-Ig (1 nM final) and allophycocyanin (APC) labeled anti-His (20 nM final). Antibodies were diluted in HTRF detection buffer and 5 μl was dispensed on top of the binding reaction. The reaction mixture was allowed to equilibrate for 30 minutes and the resulting signal (665 nm/620 nm ratio) was obtained using an EnVision fluorometer. Additional binding assays were established between the human proteins PD-1-Ig/PD-L2-His (20 & 5 nM, respectively) and CD8O-His/PD-L1-Ig (100 & 10 nM, respectively).
Recombinant Proteins: Human PD-1 (25-167) with a C-terminal human Fc domain of immunoglobulin G (Ig) epitope tag [hPD-1 (25-167)-3S-IG] and human PD-L1 (18-239) with a C-terminal His epitope tag [hPD-L1(18-239)-TVMV-His] were expressed in HEK293T cells and purified sequentially by ProteinA affinity chromatography and size exclusion chromatography. Human PD-L2-His and CD8O-His was obtained through commercial sources.
The table below lists the IC50 values for representative examples of this disclosure measured in the PD-1/PD-L1 Homogenous Time-Resolved Fluorescence (HTRF) binding assay.

Sequence of PD-1/PD-L1 (Q9NZQ7 other isoform, or with tags, fused parts or gaps): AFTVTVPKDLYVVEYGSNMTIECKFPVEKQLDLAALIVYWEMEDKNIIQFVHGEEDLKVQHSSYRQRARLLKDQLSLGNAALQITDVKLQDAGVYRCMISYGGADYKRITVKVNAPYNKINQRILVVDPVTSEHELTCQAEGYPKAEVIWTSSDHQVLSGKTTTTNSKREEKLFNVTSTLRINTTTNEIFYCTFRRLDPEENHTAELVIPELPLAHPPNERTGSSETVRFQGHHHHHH

With `CN1CCCC(COc2cccc(-c3cccc4c3CCC4Oc3cc(OCc4cncc(C#N)c4)c(CN4CCCC[C@H]4C(=O)O)cc3Cl)c2Cl)C1` (stereo partly drawn) [Example 1001, (2S)-1-(5-Chloro-4-((4-(2-chloro-3-((1-methylpiperidin-3-yl)methoxy)phenyl)-2,3-dihydro-1H-inden-1-yl)oxy)-2-((5-cyanopyridin-3-yl)methoxy)benzyl)piperidine-2-carboxylic acid] the IC50 was 1.4 nM.
`CN1CCCC(COc2cccc(-c3cccc4c3CCC4Oc3cc(OCc4cncc(C#N)c4)c(CN[C@](C)(CO)C(=O)O)cc3Cl)c2Cl)C1` (stereo partly drawn) [Example 1002, (2R)-2-((5-Chloro-4-((4-(2-chloro-3-((1-methylpiperidin-3-yl)methoxy)phenyl)-2,3-dihydro-1H-inden-1-yl)oxy)-2-((5-cyanopyridin-3-yl)methoxy)benzyl)amino)-3-hydroxy-2-methylpropanoic acid] gave an IC50 of 0.9 nM.
Molecule `CN1CCCC(COc2cccc(-c3cccc4c3CCC4Oc3cc(OCc4cncc(C#N)c4)c(CO)cc3Cl)c2Cl)C1` (centres unmarked) [Example 1003, 5-((4-Chloro-5-((4-(2-chloro-3-((1-methylpiperidin-3-yl)methoxy)phenyl)-2,3-dihydro-1H-inden-1-yl)oxy)-2-(hydroxymethyl)phenoxy)-methyl)nicotinonitrile] has an IC50 of 9.1 nM.
Work on `CN1CCC[C@@H](COc2cccc(-c3cccc4c3CC[C@@H]4Oc3cc(OCc4cncc(C#N)c4)c(CN[C@](C)(CO)C(=O)O)cc3Cl)c2Cl)C1` [Example 1004] yielded an IC50 of 3.9 nM.
For `CN1CCC[C@@H](COc2cccc(-c3cccc4c3CC[C@@H]4Oc3cc(OCc4cncc(C#N)c4)c(CO)cc3Cl)c2Cl)C1` [Example 1005, 5-((4-chloro-5-(((S)-4-(2-chloro-3-(((R)-1-methylpiperidin-3-yl)methoxy)phenyl)-2,3-dihydro-1H-inden-1-yl)oxy)-2-(hydroxymethyl)phenoxy)methyl)nicotinonitrile], the IC50 was 10.6 nM.
`CN1CCC[C@@H](COc2cccc(-c3cccc4c3CC[C@H]4Oc3cc(OCc4cncc(C#N)c4)c(CN[C@](C)(CO)C(=O)O)cc3Cl)c2Cl)C1` [Example 1006, (R)-2-((5-chloro-4-(((R)-4-(2-chloro-3-(((R)-1-methylpiperidin-3-yl)methoxy)phenyl)-2,3-dihydro-1H-inden-1-yl)oxy)-2-((5-cyanopyridin-3-yl)methoxy)benzyl)amino)-3-hydroxy-2-methylpropanoic acid] was tested, and the IC50 was 3.5 nM.
`CN1CCC[C@@H](COc2cccc(-c3cccc4c3CC[C@H]4Oc3cc(OCc4cncc(C#N)c4)c(CO)cc3Cl)c2Cl)C1` [Example 1007, 5-((4-chloro-5-(((R)-4-(2-chloro-3-(((R)-1-methylpiperidin-3-yl)methoxy)phenyl)-2,3-dihydro-1H-inden-1-yl)oxy)-2-(hydroxymethyl)phenoxy)methyl)nicotinonitrile] gave an IC50 of 4.3 nM.
With `CN1CCC[C@H](COc2cccc(-c3cccc4c3CC[C@@H]4Oc3cc(OCc4cncc(C#N)c4)c(CN[C@](C)(CO)C(=O)O)cc3Cl)c2Cl)C1` [Example 1008, (R)-2-((5-chloro-4-(((S)-4-(2-chloro-3-(((S)-1-methylpiperidin-3-yl)methoxy)phenyl)-2,3-dihydro-1H-inden-1-yl)oxy)-2-((5-cyanopyridin-3-yl)methoxy)benzyl)amino)-3-hydroxy-2-methylpropanoic acid] the IC50 was 3 nM.
In the case of `CN1CCC[C@H](COc2cccc(-c3cccc4c3CC[C@@H]4Oc3cc(OCc4cncc(C#N)c4)c(CO)cc3Cl)c2Cl)C1` [Example 1009, 5-((4-chloro-5-(((S)-4-(2-chloro-3-(((S)-1-methylpiperidin-3-yl)methoxy)phenyl)-2,3-dihydro-1H-inden-1-yl)oxy)-2-(hydroxymethyl)phenoxy)methyl)nicotinonitrile], the IC50 is reported as 24.1 nM.
`CN1CCC[C@H](COc2cccc(-c3cccc4c3CC[C@H]4Oc3cc(OCc4cncc(C#N)c4)c(CN[C@](C)(CO)C(=O)O)cc3Cl)c2Cl)C1` [Example 1010, (R)-2-((5-chloro-4-(((R)-4-(2-chloro-3-(((S)-1-methylpiperidin-3-yl)methoxy)phenyl)-2,3-dihydro-1H-inden-1-yl)oxy)-2-((5-cyanopyridin-3-yl)methoxy)benzyl)amino)-3-hydroxy-2-methylpropanoic acid] gave an IC50 of 2 nM.
`CN1CCC[C@H](COc2cccc(-c3cccc4c3CC[C@H]4Oc3cc(OCc4cncc(C#N)c4)c(CO)cc3Cl)c2Cl)C1` [Example 1011, 5-((4-chloro-5-(((R)-4-(2-chloro-3-(((S)-1-methylpiperidin-3-yl)methoxy)phenyl)-2,3-dihydro-1H-inden-1-yl)oxy)-2-(hydroxymethyl)phenoxy)methyl)nicotinonitrile] was tested, and the IC50 was 10.4 nM.
Work on `Cc1c(OCCCN2CC[C@@H](O)C2)cccc1-c1cccc2c1CCC2Oc1cc(OCc2cncc(C#N)c2)c(CN[C@](C)(CO)C(=O)O)cc1Cl` (stereo partly drawn) [Example 1012, (2R)-2-((5-Chloro-2-((5-cyanopyridin-3-yl)methoxy)-4-((4-(3-(3-((R)-3-hydroxypyrrolidin-1-yl)propoxy)-2-methylphenyl)-2,3-dihydro-1H-inden-1-yl)oxy)benzyl)-amino)-3-hydroxy-2-methylpropanoic acid] yielded an IC50 of 1.8 nM.
For `Cc1c(OCCCN2CC[C@@H](O)C2)cccc1-c1cccc2c1CCC2Oc1cc(OCc2cncc(C#N)c2)c(CO)cc1Cl` (stereo partly drawn) [Example 1013, 5-((4-Chloro-2-(hydroxymethyl)-5-((4-(3-(3-((R)-3-hydroxypyrrolidin-1-yl)propoxy)-2-methylphenyl)-2,3-dihydro-1H-inden-1-yl)oxy)phenoxy)methyl)nicotinonitrile], the IC50 was 18.1 nM.
Molecule `Cc1c(OCCCN2CC[C@@H](O)C2)cccc1-c1cccc2c1CCC2Oc1cc(OCc2cncc(C#N)c2)c(CN2CCCC[C@H]2C(=O)O)cc1Cl` (stereo partly drawn) [Example 1014, (2S)-1-(5-Chloro-2-((5-cyanopyridin-3-yl)methoxy)-4-((4-(3-(3-((R)-3-hydroxypyrrolidin-1-yl)propoxy)-2-methylphenyl)-2,3-dihydro-1H-inden-1-yl)oxy)benzyl)-piperidine-2-carboxylic acid] has an IC50 of 5.8 nM.
`Cc1c(OCCCN2CC[C@@H](O)C2)cccc1-c1cccc2c1CCC2Oc1cc(OCc2cncc(C#N)c2)c(CN[C@@H](CCO)C(=O)O)cc1Cl` (stereo partly drawn) [Example 1015, (5-chloro-2-((5-cyanopyridin-3-yl)methoxy)-4-((4-(3-(3-((R)-3-hydroxypyrrolidin-1-yl)propoxy)-2-methylphenyl)-2,3-dihydro-1H-inden-1-yl)oxy)benzyl)-L-homoserine] was tested, and the IC50 was 1.9 nM.
`CC(=O)NC1CCN(CCCOc2cccc(-c3cccc4c3CCC4Oc3cc(OCc4cncc(C#N)c4)c(CN[C@](C)(CO)C(=O)O)cc3Cl)c2Cl)CC1` (stereo partly drawn) [Example 1016, (2R)-2-((4-((4-(3-(3-(4-Acetamidopiperidin-1-yl)propoxy)-2-chlorophenyl)-2,3-dihydro-1H-inden-1-yl)oxy)-5-chloro-2-((5-cyanopyridin-3-yl)methoxy)benzyl)amino)-3-hydroxy-2-methylpropanoic acid] showed an IC50 of 3.4 nM.
`CC(=O)NC1CCN(CCCOc2cccc(-c3cccc4c3CCC4Oc3cc(OCc4cncc(C#N)c4)c(CN4CCCC[C@H]4C(=O)O)cc3Cl)c2Cl)CC1` (stereo partly drawn) [Example 1017, (2S)-1-(4-((4-(3-(3-(4-Acetamidopiperidin-1-yl)propoxy)-2-chlorophenyl)-2,3-dihydro-1H-inden-1-yl)oxy)-5-chloro-2-((5-cyanopyridin-3-yl)methoxy)benzyl)piperidine-2-carboxylic acid] showed an IC50 of 0.2 nM.
